In paper PMC11359809, “Probing the molecular basis for signal transduction through the Zinc-Activated Channel (ZAC)” (Biochemical pharmacology, 2021):
Several values for one entry are separate records, joined by “and”; a condition that tells them apart may be missing. Equal values may be shown once.

Columns and labels:
[1] = tested on: hα1-Gly/ZAC-II; details: Gly 1 mM; data not shown
Description: (§1) The construction of the ZAC-pUNIV plasmid (encoding for the human WT ZAC that contains a Thr in position 128) has been described previously. The m5-HT3A and hα1 GlyR cDNAs were subcloned from their original vectors into pUNIV (Addgene, Watertown, MA) using NheI and EcoRI as restriction enzymes. […] The C-terminus modifications in these four chimeras were introduced in their cDNAs in the same way. Point mutations were introduced in cDNAs by use of the QuikChange mutagenesis kit (Stratagene, San Diego, CA). The validity and absence of unwanted mutations in the constructed cDNAs was verified by DNA sequencing (Macrogen Europe, Amsterdam, The Netherlands).
All cDNAs used for cRNA synthesis were inserted in the pUNIV vector. […]
On the day of the TEVC recording, all compound dilutions were prepared in a saline solution [115 mM NaCl, 2.5 mM KCl, 10 mM MOPS (pH 7.5), 1.8 mM CaCl2, 0.1 mM MgCl2], and pH was adjusted to 7.5 (if needed). […] Currents were recorded using pCLAMP 10 (Molecular Devices, Sunnyvale, CA). […]
In all recordings, compounds or compound combinations were applied in the bath until the peak current decayed to a steady state (up to 30 s). […] The antagonist properties of compounds were determined by pre-application of the compound to the perfusate for 30 s followed by co-application of the compound and the agonist. […]

[2] = molecular target: T1, WT hα1 GlyR (Homo sapiens, UniProt P23415); format: cell-based
T1 construct: expressed in transfected cells; host or cells: Xenopus oocytes injected with cRNA (pUNIV vector)
T1 sequence (P23415 29-457): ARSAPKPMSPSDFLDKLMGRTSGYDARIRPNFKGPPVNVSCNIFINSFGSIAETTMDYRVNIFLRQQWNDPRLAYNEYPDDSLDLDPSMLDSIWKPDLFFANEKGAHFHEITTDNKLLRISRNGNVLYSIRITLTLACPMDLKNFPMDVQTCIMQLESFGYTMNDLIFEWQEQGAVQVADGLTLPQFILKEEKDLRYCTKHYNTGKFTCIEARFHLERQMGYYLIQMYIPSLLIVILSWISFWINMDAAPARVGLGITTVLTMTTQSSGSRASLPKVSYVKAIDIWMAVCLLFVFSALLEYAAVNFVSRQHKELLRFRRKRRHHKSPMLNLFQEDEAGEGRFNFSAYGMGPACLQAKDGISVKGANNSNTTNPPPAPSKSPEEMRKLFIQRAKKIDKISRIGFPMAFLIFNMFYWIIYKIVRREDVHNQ
Description: as §1
(§2) All cDNAs used for cRNA synthesis were inserted in the pUNIV vector. The cDNAs were linearized and subsequently transcribed and capped using the mMessage mMachine T7 RNA transcription kit (Ambion, Waltham, MA). […] Oocytes were incubated in a sterile modified Barth’s solution [88 mM NaCl, 1 mM KCl, 15 mM HEPES (pH 7.5), 2.4 mM NaHCO3, 0.41 mM CaCl2, 0.82 mM MgSO4, 0.3 mM Ca(NO3)2, 100 U/ml penicillin and 100 μg/ml streptomycin] at 16–18 °C. Based on experience gained with WT ZAC in a recent study, all TEVC recordings were performed two days after cRNA injection.
(§3) On the day of the TEVC recording, all compound dilutions were prepared in a saline solution [115 mM NaCl, 2.5 mM KCl, 10 mM MOPS (pH 7.5), 1.8 mM CaCl2, 0.1 mM MgCl2], and pH was adjusted to 7.5 (if needed). Oocytes were placed in a recording chamber continuously perfused with this saline solution, and the compounds were applied in the perfusate. Both voltage and current electrodes were agar-plugged with 3 M KCl with a resistance of 0.2–2.0 MΩ. Oocytes were voltage-clamped at −50 mV (except in the studies of the chimeras and their parent receptors where they were clamped at −60 mV, section 3.1), by a Gene Clamp 500B amplifier, and current signals were digitized by a Digidata 1322A (both from Axon Instruments, Union City, CA). Currents were recorded using pCLAMP 10 (Molecular Devices, Sunnyvale, CA). The recordings were performed at room temperature.
(§4) In all recordings, compounds or compound combinations were applied in the bath until the peak current decayed to a steady state (up to 30 s). […] The antagonist properties of compounds were determined by pre-application of the compound to the perfusate for 30 s followed by co-application of the compound and the agonist. In all recordings, washes of 1–5 min were executed between the ligand applications, the length of the washes depending on the agonist concentrations used and on the return to baseline current amplitude.
Analysis of the data from the TEVC recordings were performed using Clampfit software version 10.5 (Molecular Devices, Crawley, UK) and GraphPad Prism version 7.0c (GraphPad Software, La Jolla, CA). Unless otherwise stated, the inward currents induced by agonists in oocytes were normalized to the maximal response elicited by a specific agonist (agonist Imax) on each oocyte. Concentration-response and concentration-inhibition curves were fitted in GraphPad Prism by nonlinear regression using the equation for sigmoidal dose-response with variable slope. Each data point represents the mean ± S.E.M. value of recordings performed on at least five oocytes in total from at least two different batches. […] The null hypothesis was rejected at P < 0.05, and the differences between the means were analyzed by Tukey’s multiple comparisons test.

[3] = tested on: hα1-Gly/ZAC; assay: TEVC in oocytes expressing hα1-Gly/ZAC chimera; format: cell-based, human; details: 1 mM Gly; n = 5
Experimental: (§5) The recordings were performed at room temperature.
(§6) Analysis of the data from the TEVC recordings were performed using Clampfit software version 10.5 (Molecular Devices, Crawley, UK) and GraphPad Prism version 7.0c (GraphPad Software, La Jolla, CA). Unless otherwise stated, the inward currents induced by agonists in oocytes were normalized to the maximal response elicited by a specific agonist (agonist Imax) on each oocyte. Concentration-response and concentration-inhibition curves were fitted in GraphPad Prism by nonlinear regression using the equation for sigmoidal dose-response with variable slope. Each data point represents the mean ± S.E.M. value of recordings performed on at least five oocytes in total from at least two different batches. For the data where statistical analysis was performed, a one-way ANOVA was used. The null hypothesis was rejected at P < 0.05, and the differences between the means were analyzed by Tukey’s multiple comparisons test.
Initially, we constructed four chimeric subunits fusing the ZAC ECD or TMD-ICD with the complementary domains from either the m5-HT3A or the hα1 GlyR subunit: ZAC/m5-HT3A, m5-HT3A/ZAC, ZAC/hα1-Gly and hα1-Gly/ZAC (Fig. 1A). […] (Fig. 1A).

[4] = molecular target: T2, m5-HT3A/ZAC (Mus musculus / Homo sapiens, UniProt P23979); assay: TEVC in oocytes expressing m5-HT3A/ZAC chimera; format: cell-based
T2 sequence (P23979 24-246): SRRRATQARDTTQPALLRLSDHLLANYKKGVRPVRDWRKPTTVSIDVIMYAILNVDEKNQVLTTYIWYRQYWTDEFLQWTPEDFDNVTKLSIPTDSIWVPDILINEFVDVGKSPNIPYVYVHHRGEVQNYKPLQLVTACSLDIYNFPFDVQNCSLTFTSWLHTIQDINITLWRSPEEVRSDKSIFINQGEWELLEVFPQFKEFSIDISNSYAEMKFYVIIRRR
T2 sequence (Q401N2 231-412 partner): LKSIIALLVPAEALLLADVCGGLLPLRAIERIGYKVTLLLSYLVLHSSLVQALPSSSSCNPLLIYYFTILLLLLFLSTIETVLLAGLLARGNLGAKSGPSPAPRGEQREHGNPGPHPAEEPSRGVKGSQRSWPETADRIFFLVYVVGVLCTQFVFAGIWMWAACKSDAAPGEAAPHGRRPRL
Description: as §1, §2, §3, §4, §6

[5] = molecular target: T3, WT m5-HT3AR (Mus musculus, UniProt P23979); assay: TEVC in Xenopus oocytes expressing WT m5-HT3AR; format: cell-based
T3 construct: expressed in transfected cells; host or cells: Xenopus oocytes injected with cRNA (pUNIV vector)
T3 sequence (P23979 24-489): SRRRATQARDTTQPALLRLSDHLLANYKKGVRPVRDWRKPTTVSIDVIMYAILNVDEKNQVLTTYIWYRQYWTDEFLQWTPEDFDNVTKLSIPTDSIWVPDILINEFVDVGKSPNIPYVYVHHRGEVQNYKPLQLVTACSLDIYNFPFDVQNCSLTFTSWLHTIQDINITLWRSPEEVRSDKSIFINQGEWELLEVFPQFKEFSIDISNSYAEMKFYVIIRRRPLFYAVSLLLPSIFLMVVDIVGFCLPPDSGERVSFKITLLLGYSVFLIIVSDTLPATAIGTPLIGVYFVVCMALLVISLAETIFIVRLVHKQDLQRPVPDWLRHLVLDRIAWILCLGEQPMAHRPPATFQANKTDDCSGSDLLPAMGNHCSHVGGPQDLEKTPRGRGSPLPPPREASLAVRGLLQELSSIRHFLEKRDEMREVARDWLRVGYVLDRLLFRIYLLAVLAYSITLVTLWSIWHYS
Experimental: as §5, §6

[6] = tested on: m5-HT3A^FPR/ZAC; assay: TEVC in oocytes, Cys-loop modified chimera m5-HT3A^FPR/ZAC; format: cell-based, mouse/human; details: data not shown
Experimental: as §5
To probe the effects of exchanges of regions involved in the ECD/TMD cross-talk between the two CLRs fused in a chimera on its functionality, we constructed 12 additional chimeras, three for each of the four original chimeras (Fig. 1A). Inspired by the similar modifications that have been introduced in a functional GLIC/hα1-Gly chimera, we swapped one or both of two specific regions: the three-residue FPX (Phe-Pro-X) motif in the Cys-loop of the ECD (FPR, FPF and […] in ZAC, m5-HT3A and hα1 GlyR, respectively), which is known to protude into proximity of the M2-M3 linker during the ECD/TMD cross-talk, and the extracellular C-terminus of the TMD, which differs substantially in both amino acid sequence and length between ZAC and the two classical CLRs combined with it in the chimeras (Fig. 4B). […] In light of this, it was not surprising that the four chimeras comprising exchanges of both the FPX motif and the C-terminus also were non-functional (data not shown).

[7] = sustained (4 min) application of 3 μM 5-HT
[8] = sustained (4 min) application of 100 μM 5-HT

SMILES	agonist-evoked current [1]	Imax (current amplitude evoked by saturating agonist) [2]	Δtpeak-to-plateau [2]	Δtstart-to-peak [2]	I1 mM Gly ± S.E.M. [3]	Imax (current amplitude evoked by saturating agonist) ([4]; 3 μM 5-HT, n = 12)	5-HT-evoked current amplitudes ([4]; high-expressing half of the oocytes)	5-HT-evoked current amplitudes ([4]; low-expressing half of the oocytes)	Iresidual, 4 min [4, 7]	Δtstart-to-peak [4, 7]	Imax (current amplitude evoked by saturating agonist) ([5]; 300 μM 5-HT, n = 7)	nH ± S.E.M. (Hill slope) ([5]; agonist, n = 7)	Iresidual, 4 min [5, 8]	Δtstart-to-peak [5, 8]	time to complete return to baseline ([5]; sustained application of 100 μM 5-HT, mean ± S.E.M., n = 7)	concentration-response relationship compared to m5-HT3A/ZAC [6]
NCC(=O)O [Gly, glycine]	did not induce significant responses	2.02 ± 0.24 μA	52 ± 5.9 s	2.7 ± 0.3 s	−0.0062 ± 0.0022 μA	–	–	–	–	–	–	–	–	–	–	–
NCCc1c[nH]c2ccc(O)cc12 [5-HT, 5-hydroxytryptamine]	–	–	–	–	–	0.60 ± 0.19 μA	0.8–2.1 μA	0.1–0.2 μA	67 % of Ipeak and 67 ± 6 % of Ipeak	46 ± 7.2 s	2.92 ± 0.13 μA	1.3 ± 0.3	~0 (none) % of Ipeak	2.1 ± 0.4 s	98 ± 12 s	not significantly different
